In ChEMBL document CHEMBL1909046, “DrugMatrix in vitro pharmacology data”:

Legend:
[1] = target: Mitogen-activated protein kinase 1 (Homo sapiens, UniProt P28482); assay: DRUGMATRIX: Protein Serine/Threonine Kinase, ERK2 enzyme inhibition (substrate: Myelin Basic Protein); set-up: species or system Escherichia coli; details: Not Active = under 50% inhibition at 10 µM
[2] = target: T1, Muscarinic acetylcholine receptor M4 (Homo sapiens, UniProt P08173); format: cell membranes, CHO-K1, Membrane; further: in other assays of this panel Not Active means under 50% inhibition at 10 µM
T1 sequence (P08173 whole entry): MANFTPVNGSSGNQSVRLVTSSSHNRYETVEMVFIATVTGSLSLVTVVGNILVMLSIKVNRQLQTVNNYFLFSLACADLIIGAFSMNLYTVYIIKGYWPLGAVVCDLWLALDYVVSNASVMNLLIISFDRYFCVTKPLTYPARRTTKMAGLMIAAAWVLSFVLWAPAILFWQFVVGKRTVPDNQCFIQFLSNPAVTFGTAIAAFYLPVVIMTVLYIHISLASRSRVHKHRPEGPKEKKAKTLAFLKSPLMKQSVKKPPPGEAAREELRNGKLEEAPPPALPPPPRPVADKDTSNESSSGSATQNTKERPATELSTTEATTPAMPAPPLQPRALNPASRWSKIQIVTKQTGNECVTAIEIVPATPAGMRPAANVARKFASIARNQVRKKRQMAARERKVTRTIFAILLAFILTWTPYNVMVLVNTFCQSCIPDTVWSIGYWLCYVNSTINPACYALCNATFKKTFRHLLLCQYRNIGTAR

[3] = target: T2, Alpha-1A adrenergic receptor (Rattus norvegicus, UniProt P43140); assay: DRUGMATRIX: Alpha-1A adrenergic receptor radioligand binding (ligand: prazosin); format: cell membranes, Wistar, Submaxillary gland, Membrane; details: Not Active = under 50% inhibition at 10 µM
T2 sequence (P43140 whole entry): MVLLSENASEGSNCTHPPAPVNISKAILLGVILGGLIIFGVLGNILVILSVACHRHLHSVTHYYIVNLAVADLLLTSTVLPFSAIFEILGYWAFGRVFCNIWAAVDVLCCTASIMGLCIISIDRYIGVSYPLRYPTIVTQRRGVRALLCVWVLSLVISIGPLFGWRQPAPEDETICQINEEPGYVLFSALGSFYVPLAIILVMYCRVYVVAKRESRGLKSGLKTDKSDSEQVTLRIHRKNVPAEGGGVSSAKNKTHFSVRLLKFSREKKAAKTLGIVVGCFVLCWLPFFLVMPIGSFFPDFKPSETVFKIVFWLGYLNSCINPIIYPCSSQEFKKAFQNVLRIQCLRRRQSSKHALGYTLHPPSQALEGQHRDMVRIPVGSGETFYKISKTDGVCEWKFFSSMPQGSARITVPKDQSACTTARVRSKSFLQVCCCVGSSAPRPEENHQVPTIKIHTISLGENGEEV

Carbonic anhydrase 2 = Carbonic anhydrase 2 (Homo sapiens, UniProt P00918); assay: DRUGMATRIX: Carbonic Anhydrase II enzyme inhibition (substrate: 4-Nitrophenyl acetate (4-NPA)); format: tissue-based, Erythrocyte; details: erythrocyte; Not Active = under 50% inhibition at 10 µM
[4] = target: Protein kinase C alpha type (Homo sapiens, UniProt P17252); format: cell-based; details: sf9;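 further: inhibition of PKCalpha kinase activity measured in an enzyme assay with histone as the phosphorylation substrate; in other assays of this panel Not Active means under 50% inhibition at 10 µM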
Neutrophil elastase = target: T3, Neutrophil elastase (Homo sapiens, UniProt P08246); format: tissue-based;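 further: inhibition of neutrophil elastase enzyme activity, measured with a p-nitroanilide-linked peptide substrate; in other assays of this panel Not Active means under 50% inhibition at 10 µM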
T3 sequence (P08246 whole entry): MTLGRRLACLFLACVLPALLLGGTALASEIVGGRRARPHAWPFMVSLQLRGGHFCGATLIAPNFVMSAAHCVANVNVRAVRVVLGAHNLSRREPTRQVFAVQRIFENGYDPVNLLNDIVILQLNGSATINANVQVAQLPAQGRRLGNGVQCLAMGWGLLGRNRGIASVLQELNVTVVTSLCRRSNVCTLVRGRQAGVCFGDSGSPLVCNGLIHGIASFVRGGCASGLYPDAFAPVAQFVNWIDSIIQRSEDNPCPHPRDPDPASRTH

Cytochrome P450 2D6 = Cytochrome P450 2D6 (Homo sapiens, UniProt P10635); details: bti-tn-5b1-4; further: in other assays of this panel Not Active means under 50% inhibition at 10 µM
Sequence of Cytochrome P450 2D6 (P10635 whole entry): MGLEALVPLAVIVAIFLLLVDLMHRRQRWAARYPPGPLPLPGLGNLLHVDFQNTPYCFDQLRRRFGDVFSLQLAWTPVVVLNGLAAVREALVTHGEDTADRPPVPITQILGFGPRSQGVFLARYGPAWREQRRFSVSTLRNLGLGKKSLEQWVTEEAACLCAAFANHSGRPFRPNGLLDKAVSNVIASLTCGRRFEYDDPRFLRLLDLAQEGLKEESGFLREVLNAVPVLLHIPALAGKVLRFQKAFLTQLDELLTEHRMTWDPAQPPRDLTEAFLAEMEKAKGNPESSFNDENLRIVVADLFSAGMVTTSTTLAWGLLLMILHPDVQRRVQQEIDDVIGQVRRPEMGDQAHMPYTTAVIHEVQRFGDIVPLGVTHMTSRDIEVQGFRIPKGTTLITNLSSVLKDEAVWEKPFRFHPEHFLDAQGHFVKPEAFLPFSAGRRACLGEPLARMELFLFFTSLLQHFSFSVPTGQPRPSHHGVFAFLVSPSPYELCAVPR

Sequence of Mitogen-activated protein kinase 1 (P28482 whole entry): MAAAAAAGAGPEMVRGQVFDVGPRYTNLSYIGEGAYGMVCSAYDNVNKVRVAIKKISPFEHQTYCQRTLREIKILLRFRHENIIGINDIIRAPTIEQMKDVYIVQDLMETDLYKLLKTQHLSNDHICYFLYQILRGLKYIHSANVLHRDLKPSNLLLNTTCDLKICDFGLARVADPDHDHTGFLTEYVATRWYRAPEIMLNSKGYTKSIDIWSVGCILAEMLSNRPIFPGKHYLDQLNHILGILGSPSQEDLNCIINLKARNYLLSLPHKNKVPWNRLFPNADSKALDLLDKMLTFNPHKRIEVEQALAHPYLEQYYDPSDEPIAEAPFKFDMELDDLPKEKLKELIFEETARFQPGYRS

| Compound | IC50 [1] | IC50 ([2]; cho-k1) | IC50 [3] | IC50 (Carbonic anhydrase 2) | IC50 [4] | IC50 (Neutrophil elastase) | IC50 (Cytochrome P450 2D6) | Ki (Cytochrome P450 2D6) | IC50 ([1]; read-out: IC50) | Ki [1] | Ki ([2]; cho-k1) | Ki [3] | Ki (Carbonic anhydrase 2) | Ki [4] | Ki (Neutrophil elastase) | IC50 ([2]; read-out: IC50) | Ki ([2]; read-out: Ki) | IC50 ([3]; read-out: IC50) | Ki ([3]; read-out: Ki) |
| --- | --- | --- | --- | --- | --- | --- | --- | --- | --- | --- | --- | --- | --- | --- | --- | --- | --- | --- | --- |
| COc1cc2c3cc1Oc1cc(ccc1O)C[C@@H]1c4c(cc(OC)c(O)c4Oc4ccc(cc4)C[C@@H]3N(C)CC2)CC[N+]1(C)C.[Cl-] | Not Active | Not Active | Not Active | Not Active | Not Active | Not Active | Not Active | Not Active | – | – | – | – | – | – | – | – | – | – | – |
| Cc1cc(C(C#N)c2ccc(Cl)cc2)c(Cl)cc1NC(=O)c1cc(I)cc(I)c1O (configuration not stated) [CLOSANTEL] | – | Not Active | Not Active | Not Active | Not Active | Not Active | Not Active | Not Active | 1430 nM | – | – | – | – | – | – | – | – | – | – |
| CC(NC(C)(C)C)C(=O)c1cccc(Cl)c1 (configuration not stated) [BUPROPION] | Not Active | Not Active | Not Active | Not Active | Not Active | Not Active | Not Active | Not Active | – | – | – | – | – | – | – | – | – | – | – |
| Cc1onc(-c2ccccc2Cl)c1C(=O)N[C@@H]1C(=O)N2[C@@H]1SC(C)(C)[C@@H]2C(=O)O [CLOXACILLIN] | Not Active | Not Active | Not Active | Not Active | Not Active | Not Active | Not Active | Not Active | – | – | – | – | – | – | – | – | – | – | – |
| CADMIUM ACETATE | Not Active | Not Active | Not Active | Not Active | Not Active | Not Active | Not Active | Not Active | – | Not Active | Not Active | Not Active | Not Active | Not Active | Not Active | – | – | – | – |
| CNCCCN1c2ccccc2CCc2ccccc21 [DESIPRAMINE] | Not Active | Not Active | Not Active | Not Active | Not Active | Not Active | Not Active | Not Active | – | – | – | – | – | – | – | – | – | – | – |
| C[C@]12CCC(=O)C=C1CC[C@@H]1[C@@H]2CC[C@@]2(C)[C@H]1CC[C@]2(C)O [METHYLTESTOSTERONE] | Not Active | Not Active | Not Active | Not Active | Not Active | Not Active | Not Active | Not Active | – | – | – | – | – | – | – | – | – | – | – |
| CC(=O)O[C@@]12CO[C@@H]1C[C@H](O)[C@@]1(C)C(=O)[C@H](O)C3=C(C)[C@@H](OC(=O)[C@H](O)[C@@H](NC(=O)OC(C)(C)C)c4ccccc4)C[C@@](O)([C@@H](OC(=O)c4ccccc4)[C@H]21)C3(C)C.O.O.O [DOCETAXEL] | Not Active | Not Active | Not Active | Not Active | Not Active | Not Active | Not Active | Not Active | – | – | – | – | – | – | – | – | – | – | – |
| Nc1ncn([C@@H]2O[C@H](CO)[C@@H](O)[C@H]2O)c(=O)n1 [AZACITIDINE] | Not Active | Not Active | Not Active | Not Active | Not Active | Not Active | Not Active | Not Active | – | – | – | – | – | – | – | – | – | – | – |
| C[C@](N)(Cc1ccc(O)c(O)c1)C(=O)O [METHYLDOPA] | Not Active | Not Active | Not Active | Not Active | Not Active | Not Active | Not Active | Not Active | – | – | – | – | – | – | – | – | – | – | – |
| O=C(CCCN1CC=C(n2c(=O)[nH]c3ccccc32)CC1)c1ccc(F)cc1 [DROPERIDOL] | Not Active | – | – | Not Active | Not Active | Not Active | Not Active | Not Active | – | – | – | – | – | – | – | 3.85 µM | 537 nM | 1.65 nM | 0.669 nM |
| CC1CC(OC(=O)C(O)c2ccccc2)CC(C)(C)C1 (configuration not stated) [CYCLANDELATE] | Not Active | Not Active | Not Active | Not Active | Not Active | Not Active | Not Active | Not Active | – | – | – | – | – | – | – | – | – | – | – |
| c1ccc2c(c1)c1cccc3ccc4cccc2c4c31 [BENZO[E]PYRENE] | Not Active | Not Active | Not Active | Not Active | Not Active | Not Active | Not Active | Not Active | – | – | – | – | – | – | – | – | – | – | – |
| CC(C)[C@@]1(NC(=O)[C@@H]2C[C@@H]3c4cccc5[nH]cc(c45)C[C@H]3N(C)C2)O[C@@]2(O)[C@@H]3CCCN3C(=O)[C@H](Cc3ccccc3)N2C1=O.CS(=O)(=O)O [DIHYDROERGOCRISTINE MESYLATE] | Not Active | Not Active | – | Not Active | Not Active | Not Active | Not Active | Not Active | – | – | – | – | – | – | – | – | – | 1.62 nM | 0.656 nM |
| CC[C@@]1(O)C[C@H](O[C@H]2C[C@H](N(C)C)[C@H](O[C@H]3C[C@H](O)[C@H](O[C@H]4CCC(=O)[C@H](C)O4)[C@H](C)O3)[C@H](C)O2)c2c(cc3c(c2O)C(=O)c2c(O)cccc2C3=O)[C@H]1C(=O)OC [ACLARUBICIN] | Not Active | Not Active | Not Active | Not Active | Not Active | Not Active | Not Active | Not Active | – | – | – | – | – | – | – | – | – | – | – |
| CCn1cc(C(=O)O)c(=O)c2cc(F)c(N3CCNCC3)cc21 [NORFLOXACIN] | Not Active | Not Active | Not Active | Not Active | Not Active | Not Active | Not Active | Not Active | – | – | – | – | – | – | – | – | – | – | – |
| Cc1c(O)c(=O)ccn1C [DEFERIPRONE] | Not Active | Not Active | Not Active | Not Active | Not Active | Not Active | Not Active | Not Active | – | – | – | – | – | – | – | – | – | – | – |
| NC1=NC(=O)C(c2ccccc2)O1 (configuration not stated) [PEMOLINE] | Not Active | Not Active | Not Active | Not Active | Not Active | Not Active | Not Active | Not Active | – | – | – | – | – | – | – | – | – | – | – |
| Sc1ncnc2nc[nH]c12 [MERCAPTOPURINE ANHYDROUS] | Not Active | Not Active | Not Active | Not Active | Not Active | Not Active | Not Active | Not Active | – | – | – | – | – | – | – | – | – | – | – |
| COCCc1ccc(OCC(O)CNC(C)C)cc1 (configuration not stated) [METOPROLOL] | Not Active | Not Active | Not Active | Not Active | Not Active | Not Active | Not Active | Not Active | – | – | – | – | – | – | – | – | – | – | – |
| O=c1[nH]c(=O)n([C@H]2C[C@H](O)[C@@H](CO)O2)cc1I [IDOXURIDINE] | Not Active | Not Active | Not Active | Not Active | Not Active | Not Active | Not Active | Not Active | – | – | – | – | – | – | – | – | – | – | – |
| CNNCc1ccc(C(=O)NC(C)C)cc1 [PROCARBAZINE] | Not Active | Not Active | Not Active | Not Active | Not Active | Not Active | Not Active | Not Active | – | – | – | – | – | – | – | – | – | – | – |
| CC(C)C(=O)Nc1ccc([N+](=O)[O-])c(C(F)(F)F)c1 [FLUTAMIDE] | Not Active | Not Active | Not Active | Not Active | Not Active | Not Active | Not Active | Not Active | – | – | – | – | – | – | – | – | – | – | – |
| LEAD (II) ACETATE | Not Active | Not Active | Not Active | Not Active | Not Active | Not Active | Not Active | Not Active | – | Not Active | Not Active | Not Active | Not Active | Not Active | Not Active | – | – | – | – |
